According to US9446039B2, “Aminoheteroaryl compounds as MTH1 inhibitors” (CEMM—FORSCHUNGSZENTRUM FÜR MOLEKULARE MEDIZIN GMBH, priority 2012, dated 2016):

What was measured:
Format in all cases: binding
[1] = target: SW480 colon carcinoma cells lysate proteins (Homo sapiens, UniProt P39687); conditions: PreyGene ANP32A
[2] = target: T1, SW480 colon carcinoma cells lysate proteins (Homo sapiens, UniProt P21980); conditions: PreyGene TGM2
T1 sequence (P21980 1-687): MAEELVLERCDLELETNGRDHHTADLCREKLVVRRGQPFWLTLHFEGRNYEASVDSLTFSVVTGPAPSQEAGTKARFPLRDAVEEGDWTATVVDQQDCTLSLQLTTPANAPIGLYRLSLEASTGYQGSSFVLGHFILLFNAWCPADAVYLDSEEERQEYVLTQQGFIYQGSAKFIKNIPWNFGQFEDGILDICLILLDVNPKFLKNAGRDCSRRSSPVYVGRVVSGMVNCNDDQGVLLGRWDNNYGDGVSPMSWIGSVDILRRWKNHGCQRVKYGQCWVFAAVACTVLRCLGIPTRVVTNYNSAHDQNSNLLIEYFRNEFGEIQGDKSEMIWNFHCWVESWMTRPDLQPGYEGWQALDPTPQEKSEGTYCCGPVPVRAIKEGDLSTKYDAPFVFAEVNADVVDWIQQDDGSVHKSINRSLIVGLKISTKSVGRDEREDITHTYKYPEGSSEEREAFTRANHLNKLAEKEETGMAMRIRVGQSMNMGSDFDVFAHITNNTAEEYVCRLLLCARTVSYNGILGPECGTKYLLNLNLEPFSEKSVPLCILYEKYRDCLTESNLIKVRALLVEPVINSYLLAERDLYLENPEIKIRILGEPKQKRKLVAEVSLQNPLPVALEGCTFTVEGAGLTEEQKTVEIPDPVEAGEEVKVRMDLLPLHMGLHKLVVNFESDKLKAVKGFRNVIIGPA

[3] = target: SW480 colon carcinoma cells lysate proteins (Homo sapiens, UniProt P30040); conditions: PreyGene ERP29
[4] = target: T2, SW480 colon carcinoma cells lysate proteins (Homo sapiens, UniProt Q01844); conditions: PreyGene EWSR1; SW480 cells
T2 sequence (Q01844 1-656): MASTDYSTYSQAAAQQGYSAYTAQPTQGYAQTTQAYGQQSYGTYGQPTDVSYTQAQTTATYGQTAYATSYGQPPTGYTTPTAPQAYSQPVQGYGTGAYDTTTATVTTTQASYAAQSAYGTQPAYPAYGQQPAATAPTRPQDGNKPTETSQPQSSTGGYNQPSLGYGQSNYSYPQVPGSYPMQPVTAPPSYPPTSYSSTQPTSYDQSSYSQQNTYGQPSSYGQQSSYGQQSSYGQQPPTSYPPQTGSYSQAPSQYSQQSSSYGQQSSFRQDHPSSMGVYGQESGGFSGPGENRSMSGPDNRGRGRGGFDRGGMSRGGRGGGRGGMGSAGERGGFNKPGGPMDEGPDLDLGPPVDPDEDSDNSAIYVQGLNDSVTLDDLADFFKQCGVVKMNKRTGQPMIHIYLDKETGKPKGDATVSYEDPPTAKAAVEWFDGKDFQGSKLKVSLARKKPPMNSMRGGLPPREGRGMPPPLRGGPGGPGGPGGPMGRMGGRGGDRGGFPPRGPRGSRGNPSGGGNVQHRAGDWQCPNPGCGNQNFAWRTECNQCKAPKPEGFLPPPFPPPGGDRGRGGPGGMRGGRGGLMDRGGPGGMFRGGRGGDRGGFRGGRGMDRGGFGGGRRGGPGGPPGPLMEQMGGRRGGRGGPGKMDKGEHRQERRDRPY

[5] = target: T3, SW480 colon carcinoma cells lysate proteins (Homo sapiens, UniProt Q04837); conditions: PreyGene SSBP1; SW480 cells
T3 sequence (Q04837 17-148): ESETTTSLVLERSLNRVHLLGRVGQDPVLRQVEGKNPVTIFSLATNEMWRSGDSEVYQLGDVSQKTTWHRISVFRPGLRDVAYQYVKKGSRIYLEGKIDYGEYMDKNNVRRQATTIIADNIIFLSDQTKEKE

[6] = target: SW480 colon carcinoma cells lysate proteins (Homo sapiens, UniProt Q09666); conditions: PreyGene AHNAK; SW480 cells
[7] = target: T4, SW480 colon carcinoma cells lysate proteins (Homo sapiens, UniProt P12429); conditions: PreyGene ANXA3
T4 sequence (P12429 1-323): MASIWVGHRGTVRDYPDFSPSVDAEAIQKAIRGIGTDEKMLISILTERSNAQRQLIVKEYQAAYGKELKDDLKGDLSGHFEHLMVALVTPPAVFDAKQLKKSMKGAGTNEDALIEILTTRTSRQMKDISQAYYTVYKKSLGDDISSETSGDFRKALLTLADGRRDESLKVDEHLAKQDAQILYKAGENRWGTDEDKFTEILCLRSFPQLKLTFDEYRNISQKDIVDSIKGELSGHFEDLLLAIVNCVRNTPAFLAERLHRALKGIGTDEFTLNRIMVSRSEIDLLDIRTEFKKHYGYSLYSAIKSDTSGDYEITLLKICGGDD

Chain of SW480 colon carcinoma cells lysate proteins (Homo sapiens, UniProt P39687) (P39687 whole entry): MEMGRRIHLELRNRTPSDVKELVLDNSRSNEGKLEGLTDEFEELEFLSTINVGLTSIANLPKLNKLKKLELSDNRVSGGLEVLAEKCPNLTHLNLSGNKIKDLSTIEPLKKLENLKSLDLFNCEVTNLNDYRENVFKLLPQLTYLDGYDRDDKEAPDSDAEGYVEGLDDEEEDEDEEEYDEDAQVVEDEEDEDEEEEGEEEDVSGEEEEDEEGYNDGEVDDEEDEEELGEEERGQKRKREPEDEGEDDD

C[C@H](Oc1cc(-c2cnn(C3CCNCC3)c2)cnc1N)c1c(Cl)ccc(F)c1Cl [(5)-crizotinib]
AvgP [1]: 0.5951
SC.Exp. 1-1 [1]: 1
SC.Exp. 1-2 [1]: 1
SC.Exp. 2-1 [1]: 1
SC.Exp. 2-2 [1]: 3
Sum (SC.Exp.) [1]: 6
AvgP [2]: 0.2455
SC.Exp. 1-1 [2]: 6
SC.Exp. 1-2 [2]: 5
SC.Exp. 2-1 [2]: 0
SC.Exp. 2-2 [2]: 0
Sum (SC.Exp.) [2]: 11
AvgP [3]: 0.1841
SC.Exp. 1-1 [3]: 2
SC.Exp. 1-2 [3]: 0
SC.Exp. 2-1 [3]: 0
SC.Exp. 2-2 [3]: 0
Sum (SC.Exp.) [3]: 2
AvgP [4]: 0
SC.Exp. 1-1 [4]: 0
SC.Exp. 1-2 [4]: 1
SC.Exp. 2-1 [4]: 0
SC.Exp. 2-2 [4]: 0
SC.Exp. Sum [4]: 1
AvgP [5]: 0
SC.Exp. 1-1 [5]: 1
SC.Exp. 1-2 [5]: 1
SC.Exp. 2-1 [5]: 0
SC.Exp. 2-2 [5]: 0
SC.Exp. Sum [5]: 2
AvgP [6]: 0
SC.Exp. 1-1 [6]: 5
SC.Exp. 1-2 [6]: 6
SC.Exp. 2-1 [6]: 6
SC.Exp. 2-2 [6]: 6
SC.Exp. Sum [6]: 23
AvgP [7]: 0.461
SC.Exp. 1-1 [7]: 4
SC.Exp. 1-2 [7]: 4
SC.Exp. 2-1 [7]: 0
SC.Exp. 2-2 [7]: 0
Sum (SC.Exp.) [7]: 8
